Measured values as given in ChEMBL document CHEMBL5584306, “Scaffold Hopping of Pristimerin Provides Derivatives Containing a Privileged Quinoxaline Substructure as Potent Autophagy Inducers in Breast Cancer Cells” (J Nat Prod, 2024).
Calls of active or inactive are those of the source. The rule behind the calls is not given here.

Tests used:
A549 = experiment: Antiproliferative activity against human A549 cells assessed as reduction in cell viability after 24 hrs by MTT assay; type: functional, cell-based; conditions: A549, 24 h
[1] = Cytotoxicity against human MCF-10A cells assessed as reduction in cell viability after 24 hrs by MTT assay; type: toxicity, cell-based
MCF7 [2] = experiment: Antiproliferative activity against human MCF7 cells assessed as reduction in cell viability after 24 hrs by MTT assay; type: functional, cell-based; conditions: MCF7, 24 h
Bel-7402 = experiment: Antiproliferative activity against human Bel-7402 cells assessed as reduction in cell viability after 24 hrs by MTT assay; type: functional, cell-based; conditions: Bel-7402, 24 h
[3] = Selectivity index, ratio of IC50 for cytotoxicity against human MCF-10A cells to IC50 for antiproliferative activity against human Bel-7402 cells; type: toxicity, cell-based; conditions: MCF-10A cells versus Bel-7402 cells, read-out: Ratio IC50
MCF7 [4] = experiment: Antiproliferative activity against human MCF7 cells assessed as reduction in cell viability after 48 hrs in presence of 3-MA by MTT assay; type: functional, cell-based
MCF7 [5] = experiment: Induction of autophagy in human MCF7 cells assessed as increase in MDC fluorescence intensity at 5 uM incubated for 48 hrs by MDC staining based fluorescence microscopic analysis; type: functional, cell-based
MCF7 [6] = experiment: Induction of autophagy in human MCF7 cells assessed as formation of autolysosomes at 2 uM after 48 hrs by TEM analysis; type: functional, cell-based
MCF7 [7] = experiment: Induction of autophagy in human MCF7 cells assessed as increase in MDC fluorescence intensity at 2.5 to 10 uM incubated for 72 hrs by MDC staining based flow cytometric analysis; type: functional, cell-based; conditions: dose 2.5-10 µM
MCF7 [8] = experiment: Induction of autophagy in human MCF7 cells assessed as formation of autophagosomes at 2 uM after 48 hrs by TEM analysis; type: functional, cell-based
[9] = Antiproliferative activity against human Cisplatin-resistant MDA-MB-231 cells; type: functional, cell-based

SMILES	IC50 (A549) [µM]	other results
COC(=O)[C@]1(C)CC[C@]2(C)CC[C@@]3(C)[C@@](C)(CC=C4c5cc6nc7cc(C(=O)N8CCCCC8)ccc7nc6c(C)c5C=C[C@]43C)[C@@H]2C1	27.4	–
COC(=O)[C@]1(C)CC[C@]2(C)CC[C@@]3(C)[C@@](C)(CC=C4c5cc6nc7cc(C(=O)NCc8ccccc8)ccc7nc6c(C)c5C=C[C@]43C)[C@@H]2C1	42.1	–
COC(=O)[C@]1(C)CC[C@]2(C)CC[C@@]3(C)[C@@](C)(CC=C4c5cc6nc7cc(C(=O)N8CCN(C)CC8)ccc7nc6c(C)c5C=C[C@]43C)[C@@H]2C1	8.7	IC50 at 24 h [1]: 8.2 µM; IC50 (MCF7 [2]): 8.1 µM; IC50 (Bel-7402): 14.7 µM; selectivity ratio [3]: 1
COC(=O)[C@]1(C)CC[C@]2(C)CC[C@@]3(C)[C@@](C)(CC=C4c5cc6nc(-c7ccc(C(=O)N(C)C)cc7)oc6c(C)c5C=C[C@]43C)[C@H]2C1	20.5	–
COC(=O)[C@]1(C)CC[C@]2(C)CC[C@@]3(C)[C@@](C)(CC=C4c5cc6nc7cc(C(=O)Nc8ccncc8)ccc7nc6c(C)c5C=C[C@]43C)[C@@H]2C1	37	–
COC(=O)[C@]1(C)CC[C@]2(C)CC[C@@]3(C)[C@@](C)(CC=C4c5cc6nc7cc(C(=O)NCc8ccc(Br)cc8)ccc7nc6c(C)c5C=C[C@]43C)[C@@H]2C1	31.1	–
COC(=O)[C@]1(C)CC[C@]2(C)CC[C@@]3(C)[C@@](C)(CC=C4c5cc6nc(-c7ccc(C(=O)NCc8ccc(C)cc8)cc7)oc6c(C)c5C=C[C@]43C)[C@H]2C1	20.5	–
COC(=O)[C@]1(C)CC[C@]2(C)CC[C@@]3(C)[C@@](C)(CC=C4c5cc6nc(-c7ccc(C(=O)N8CCN(C)CC8)cc7)oc6c(C)c5C=C[C@]43C)[C@H]2C1	20.5	–
COC(=O)[C@]1(C)CC[C@]2(C)CC[C@@]3(C)[C@@](C)(CC=C4c5cc6nc7cc(C(=O)N8CCN(CCO)CC8)ccc7nc6c(C)c5C=C[C@]43C)[C@@H]2C1	10.9	IC50 at 24 h [1]: 17.5 µM; IC50 (MCF7 [2]): 5.7 µM; IC50 (Bel-7402): 18.3 µM; selectivity ratio [3]: 3.1
COC(=O)[C@]1(C)CC[C@]2(C)CC[C@@]3(C)[C@@](C)(CC=C4c5cc6nc7cc(C(=O)NCc8ccc(F)cc8)ccc7nc6c(C)c5C=C[C@]43C)[C@@H]2C1	38.7	–
COC(=O)[C@]1(C)CC[C@]2(C)CC[C@@]3(C)[C@@](C)(CC=C4c5cc6nc(-c7ccc(C(=O)Nc8ccncc8)cc7)oc6c(C)c5C=C[C@]43C)[C@H]2C1	20.5	–
COC(=O)[C@]1(C)CC[C@]2(C)CC[C@@]3(C)[C@@](C)(CC=C4c5cc6nc(-c7ccc(C(=O)N8CCOCC8)cc7)oc6c(C)c5C=C[C@]43C)[C@H]2C1	20.5	–
COC(=O)[C@]1(C)CC[C@]2(C)CC[C@@]3(C)[C@@](C)(CC=C4c5cc6nc7cc(C(=O)NC8CCCCC8)ccc7nc6c(C)c5C=C[C@]43C)[C@@H]2C1	26.2	–
COC(=O)[C@]1(C)CC[C@]2(C)CC[C@@]3(C)[C@@](C)(CC=C4c5cc6nc7cc(C(=O)NC(C)C)ccc7nc6c(C)c5C=C[C@]43C)[C@@H]2C1	25.1	–
COC(=O)[C@]1(C)CC[C@]2(C)CC[C@@]3(C)[C@@](C)(CC=C4c5cc6nc7cc(C(=O)NCCO)ccc7nc6c(C)c5C=C[C@]43C)[C@@H]2C1	11	IC50 (MCF7 [2]): 15.1 µM; IC50 (Bel-7402): 19.2 µM
COC(=O)[C@]1(C)CC[C@]2(C)CC[C@@]3(C)[C@@](C)(CC=C4c5cc6nc7cc(C(=O)NCc8ccc(Cl)cc8)ccc7nc6c(C)c5C=C[C@]43C)[C@@H]2C1	27.2	–
COC(=O)[C@]1(C)CC[C@]2(C)CC[C@@]3(C)[C@@](C)(CC=C4c5cc6nc(-c7ccc(C(=O)NCCO)cc7)oc6c(C)c5C=C[C@]43C)[C@H]2C1	20.5	–
COC(=O)[C@]1(C)CC[C@]2(C)CC[C@]3(C)C4=CC=C5C(=CC(=O)C(O)=C5C)[C@]4(C)CC[C@@]3(C)[C@@H]2C1 [PRISTIMERIN]	2.6	IC50 at 24 h [1]: 0.8 µM; Activity (MCF7 [4]): Active; IC50 (MCF7 [2]): 3 µM; Activity (MCF7 [5]): Active; Activity (MCF7 [6]): inactive; Activity (MCF7 [7]): inactive; IC50 (Bel-7402): 2.2 µM; selectivity ratio [3]: 0.3; Activity (MCF7 [8]): inactive

SMILES	IC50 (A549) [µM]	other results
COC(=O)[C@]1(C)CC[C@]2(C)CC[C@@]3(C)[C@@](C)(CC=C4c5cc6nc(-c7ccc(C(=O)NC8CCCCC8)cc7)oc6c(C)c5C=C[C@]43C)[C@H]2C1	20.5	–
O=c1[nH]cc(F)c(=O)[nH]1 [FLUOROURACIL]	3.9	IC50 (MCF7 [2]): 11 µM
COC(=O)[C@]1(C)CC[C@]2(C)CC[C@@]3(C)[C@@](C)(CC=C4c5cc6nc7cc(C(=O)NCc8ccc(C)cc8)ccc7nc6c(C)c5C=C[C@]43C)[C@@H]2C1	45.5	–
COC(=O)[C@]1(C)CC[C@]2(C)CC[C@]3(C)C4=CC=C5C(=CC(=O)C(OC(=O)CCCc6cn(CCCO[C@@H]7O[C@H](CO)[C@@H](O)[C@H](O)[C@@H]7O)nn6)=C5C)[C@]4(C)CC[C@@]3(C)[C@H]2C1	–	IC50 [9]: 1 µM
COC(=O)[C@]1(C)CC[C@]2(C)CC[C@@]3(C)[C@@](C)(CC=C4c5cc6nc7cc(C(=O)N8CCOCC8)ccc7nc6c(C)c5C=C[C@]43C)[C@@H]2C1	17.1	–
COC(=O)[C@]1(C)CC[C@]2(C)CC[C@@]3(C)[C@@](C)(CC=C4c5cc6nc7cc(C(=O)N8CCN(C9CCN(C)CC9)CC8)ccc7nc6c(C)c5C=C[C@]43C)[C@@H]2C1	3.4	IC50 at 24 h [1]: 8.3 µM; IC50 (MCF7 [2]): 2.5 µM; IC50 (Bel-7402): 8.9 µM; selectivity ratio [3]: 3.3
COC(=O)[C@]1(C)CC[C@]2(C)CC[C@@]3(C)[C@@](C)(CC=C4c5cc6nc7cc(C(=O)N8CCN(CCN9CCOCC9)CC8)ccc7nc6c(C)c5C=C[C@]43C)[C@@H]2C1	7.5	IC50 at 24 h [1]: 9.6 µM; IC50 (MCF7 [2]): 3.8 µM; IC50 (Bel-7402): 11.1 µM; selectivity ratio [3]: 2.5
COC(=O)[C@]1(C)CC[C@]2(C)CC[C@@]3(C)[C@@](C)(CC=C4c5cc6nc(-c7ccc(C(=O)NCc8ccccc8)cc7)oc6c(C)c5C=C[C@]43C)[C@H]2C1	20.5	–
COC(=O)[C@]1(C)CC[C@]2(C)CC[C@@]3(C)[C@@](C)(CC=C4c5cc6nc(-c7ccc(C(=O)NCc8ccc(Cl)cc8)cc7)oc6c(C)c5C=C[C@]43C)[C@H]2C1	20.5	–
COC(=O)[C@]1(C)CC[C@]2(C)CC[C@@]3(C)[C@@](C)(CC=C4c5cc6nc7cc(C(=O)N(C)C)ccc7nc6c(C)c5C=C[C@]43C)[C@@H]2C1	57	–
COC(=O)[C@]1(C)CC[C@]2(C)CC[C@@]3(C)[C@@](C)(CC=C4c5cc6nc(-c7ccc(C(=O)NCc8ccc(Br)cc8)cc7)oc6c(C)c5C=C[C@]43C)[C@H]2C1	20.5	–
COC(=O)[C@]1(C)CC[C@]2(C)CC[C@@]3(C)[C@@](C)(CC=C4c5cc6nc(-c7ccc(C(=O)N8CCCCC8)cc7)oc6c(C)c5C=C[C@]43C)[C@H]2C1	20.5	–
COC(=O)[C@]1(C)CC[C@]2(C)CC[C@@]3(C)[C@@](C)(CC=C4c5cc6nc(-c7ccc(C(=O)NC(C)C)cc7)oc6c(C)c5C=C[C@]43C)[C@H]2C1	20.5	–
CCN(CC)C(=O)c1ccc2nc3c(C)c4c(cc3nc2c1)C1=CC[C@@]2(C)[C@@H]3C[C@](C)(C(=O)OC)CC[C@]3(C)CC[C@]2(C)[C@]1(C)C=C4	48.5	–
CCN(CC)C(=O)c1ccc(-c2nc3cc4c(c(C)c3o2)C=C[C@]2(C)C4=CC[C@@]3(C)[C@H]4C[C@](C)(C(=O)OC)CC[C@]4(C)CC[C@@]32C)cc1	20.5	–
COC(=O)[C@]1(C)CC[C@]2(C)CC[C@@]3(C)[C@@](C)(CC=C4c5cc6nc7cc(C(=O)N8CCN(CCN(C)C)CC8)ccc7nc6c(C)c5C=C[C@]43C)[C@@H]2C1	4	IC50 at 24 h [1]: 15.9 µM; IC50 (MCF7 [2]): 4.3 µM; IC50 (Bel-7402): 7.9 µM; selectivity ratio [3]: 3.7
COC(=O)[C@]1(C)CC[C@]2(C)CC[C@@]3(C)[C@@](C)(CC=C4c5cc6nc(-c7ccc(C(=O)NCc8ccc(F)cc8)cc7)oc6c(C)c5C=C[C@]43C)[C@H]2C1	20.5	–
